The values below come from PMC6272905, “In Vitro and In Vivo Characterization of Selected Fluorine-18 Labeled Radioligands for PET Imaging of the Dopamine D3 Receptor” (Molecules, 2016).

The target of one data set is T1, D3 receptor in rat brain (Rattus norvegicus, UniProt P19020).
T1 construct: from tissue; host or cells: brain cryosections (12 µm) of male Wistar rats
The data set is described as follows: Saturation binding assay on rat brain sections. To be noted: for Bmax: rat brain sections, n = 4.

For data set [1], the target named is D3 receptor. Conditions: cited from earlier work.
In data set [2] the target is T2, P-gp (Homo sapiens, UniProt P08183).
T2 construct: endogenous in cells; host or cells: Caco-2
The data set can be described thus: P-gp inhibition assay (cellular uptake) in EA.hy926 cells. The data set is classed as cell-based. On the procedure: (§1) EA.hy926 cells were seeded in culture medium at confluency the day prior to experiment or in case of the Caco-2 cells two days prior to experiment in 24-multiwell plates (Greiner Bio-One International GmbH, Kremsmünster, Austria). On the day of the experiment the culture medium was removed and the cells were washed once with PBS (500 µL). Culture medium supplemented with cyclosporine-A (5 µM for EA.hy926 and 10 µM for Caco-2) was added and the cells were incubated at 37 °C for 30 min. Afterwards 1 MBq of [^18F]2b was added to each well and incubated for further 30, 60 and 90 min. After incubation cells were washed with ice cold PBS (500 µL) and lysated with 0.1 M NaOH. The medium and lysates were analysed in the gamma-counter. To identify cyclosporine-A induced accumulation the experiment was also performed using culture medium lacking cyclosporine-A. As positive control the experiment was performed with ^99mTc-MIBI (100 kBq/well), a known P-gp substrate. To determine the lowermost concentration with which a maximum effect was obtained, cyclosporine-A was applied in a range of 0–50 µM and observed in a time frame of 30–120 min for both cell lines.

Data set [3] has as its target T2, P-gp. The data set is described as follows: P-gp inhibition assay (cellular uptake) in Caco-2 cells. The data set is classed as cell-based. As for the experimental part:
as §1

A short description of data set [4]: Binding to proteins in human plasma in vitro. The data set is classed as in vitro ADME. To be noted: human vs rat plasma. As for the experimental part:
The free fraction in vitro was determined by adding the respective radioligand (100 kBq) to plasma or CSF (200 µL) and mixed vigorously. Aliquots of 20–50 µL were transferred to size exclusion chromatography columns (MicroSpin G-50; GE Healthcare GmbH, Solingen, Germany, centrifuged for two min at 2000 rpm, and the radioactivity in the filtrate and in the resin were measured in the gamma-counter. Three independent experiments were performed in triplicates.

Data set [5] concerns the target T2, P-gp. The data set is described as follows: Bi-directional transport assay in Caco-2 cells. The data set is classed as cell-based. As for the experimental part:
The procedure of initially adding equal concentrations to both compartments was adapted from the literature. Caco-2 cells were seeded near confluency in thin-cert inserts (translucent, Ø 0.4 µm, 24 well PET membrane, Greiner) and placed in multiwell plates (CELLSTAR 24 Multiwell plates, Greiner). The culture medium basolateral (multiwell) and apical (insert) was renewed every 2–3 days. Approximately 12 days after seeding the Caco-2 cells reached their highest trans-epithelial resistance, which was monitored every four days and on day of the experiment. An immunocytochemistry was also performed with an additional insert (translucent) to confirm stable formation of tight-junctions and cell monolayer. Culture medium was then removed and the cells were washed with PBS. Culture medium supplemented with cyclosporin (10 µM) was added to both compartments and the cells were incubated at 37 °C for 30 min. Afterwards 1 MBq [^18F]2b was added to each compartment. An aliquot was taken from each compartment after 0, 30, 60 and 90 min and analyzed in the gamma-counter. To identify cyclosporine-A induced accumulation the experiment was also performed using culture medium lacking cyclosporine-A. As positive control the experiment was performed with ^99mTc-MIBI (100 kBq/ compartment).

Data set [6] addresses T3, D3 receptor (Rattus norvegicus, UniProt P19020).
T3 construct: In vitro autoradiography of coronal rat brain sections after incubation with the respective radioligand; from tissue; host or cells: coronal brain cryosections (20 µm) of male Sprague Dawley rats
The data set is described as follows: In vitro autoradiography of coronal rat brain sections. Conditions: displacement with BP897. The data set is classed as binding. On the procedure:
Male Sprague Dawley rats (200–250 g) were sacrificed by decapitation under deep isoflurane anesthesia and brains were removed and frozen in cooled hexane at −70 °C. Coronal brain sections (20 µm) were cut on a cryostat microtome (HM550, Microm-Thermo Fisher Scientific, Walldorf, Germany) and thaw-mounted on covered glass slides (Histobond®, Marienfeld, Lauda Königshofen, Germany). The thaw mounted sections were stored at −20 °C up to 14 days.
The cryostat sections were pre-incubated for 15 min in incubation buffer (50 mM Tris-HCl, 40 mM NaCl, pH 7.4) at room temperature. The sections were then placed in incubation buffer containing 5 MBq of the respective tracer. For displacement studies BP897 (50 nM or 1 µM) was added. The sections were incubated at room temperature for 45 min and afterwards washed in ice cold incubation buffer for 3 × 5 min. Subsequently, they were dipped in water and after drying placed on a phosphor imaging screen (Fujitsu, Berlin, Germany) over night. The screens were analyzed with a DUERR Medical HD-CR 35 Bio (Raytest, Straubenhardt, Germany) and evaluated using the software AIDA image analyzer (Raytest). For anatomical identification of brain regions, the sections were compared with figures in the rat brain atlas.

On the set-up of data set [7]: method as in PMID 24339325, PMID 26707848. To be noted: experimental, pH 7.4, n = 6, previously reported; cited from earlier work.
A short description of data set [8]: In vivo stability in blood of living rats (radiometabolites). The arrangement: species or system rat. As for the experimental part:
For the determination of radioligand stability in vivo and detection of radiometabolites the respective radiotracer (15 MBq) was administered intravenous to male Sprague Dawley rats (200–250 g) under isoflurane anesthesia. Blood samples were drawn intravenous after 5, 15 and 30 min and centrifuged for 5 min at 2000 rpm in heparin-coated vials. An aliquot of 50 µL was taken from the supernatant and added to an equal volume of water (10% TFA). The protein precipitate was centrifuged off for 5 min at 25,000 rpm and an aliquot of the supernatant was fractioned with HPLC (Chromolith RP-18e, 100 mm × 4.6 mm, 4 mL/min, solvent A: water (0.1% TFA), solvent B: acetonitrile (0.1% TFA), gradient A/B: 90:10 to 0:100 in 15 min, λ = 214 nm). The fractions were then analyzed in the gamma-counter. To identify the fractions containing the intact radioligand, the retention time and fractioning of the respective tracer was previously assessed. Two independent experiments were performed.

On the set-up of data set [9]: method as in PMID 24339325, PMID 26707848. Conditions: over 120 min, previously reported; cited from earlier work.
The mark [10] stands for this setting: Caco-2, absence of cyclosporin-A, up to 90 min.

SMILES strings stand for the structures. Several values for one entry are separate records, joined by “and”; a condition that tells them apart may be missing. Equal entries are not always repeated.

T2 sequence (P08183 whole entry): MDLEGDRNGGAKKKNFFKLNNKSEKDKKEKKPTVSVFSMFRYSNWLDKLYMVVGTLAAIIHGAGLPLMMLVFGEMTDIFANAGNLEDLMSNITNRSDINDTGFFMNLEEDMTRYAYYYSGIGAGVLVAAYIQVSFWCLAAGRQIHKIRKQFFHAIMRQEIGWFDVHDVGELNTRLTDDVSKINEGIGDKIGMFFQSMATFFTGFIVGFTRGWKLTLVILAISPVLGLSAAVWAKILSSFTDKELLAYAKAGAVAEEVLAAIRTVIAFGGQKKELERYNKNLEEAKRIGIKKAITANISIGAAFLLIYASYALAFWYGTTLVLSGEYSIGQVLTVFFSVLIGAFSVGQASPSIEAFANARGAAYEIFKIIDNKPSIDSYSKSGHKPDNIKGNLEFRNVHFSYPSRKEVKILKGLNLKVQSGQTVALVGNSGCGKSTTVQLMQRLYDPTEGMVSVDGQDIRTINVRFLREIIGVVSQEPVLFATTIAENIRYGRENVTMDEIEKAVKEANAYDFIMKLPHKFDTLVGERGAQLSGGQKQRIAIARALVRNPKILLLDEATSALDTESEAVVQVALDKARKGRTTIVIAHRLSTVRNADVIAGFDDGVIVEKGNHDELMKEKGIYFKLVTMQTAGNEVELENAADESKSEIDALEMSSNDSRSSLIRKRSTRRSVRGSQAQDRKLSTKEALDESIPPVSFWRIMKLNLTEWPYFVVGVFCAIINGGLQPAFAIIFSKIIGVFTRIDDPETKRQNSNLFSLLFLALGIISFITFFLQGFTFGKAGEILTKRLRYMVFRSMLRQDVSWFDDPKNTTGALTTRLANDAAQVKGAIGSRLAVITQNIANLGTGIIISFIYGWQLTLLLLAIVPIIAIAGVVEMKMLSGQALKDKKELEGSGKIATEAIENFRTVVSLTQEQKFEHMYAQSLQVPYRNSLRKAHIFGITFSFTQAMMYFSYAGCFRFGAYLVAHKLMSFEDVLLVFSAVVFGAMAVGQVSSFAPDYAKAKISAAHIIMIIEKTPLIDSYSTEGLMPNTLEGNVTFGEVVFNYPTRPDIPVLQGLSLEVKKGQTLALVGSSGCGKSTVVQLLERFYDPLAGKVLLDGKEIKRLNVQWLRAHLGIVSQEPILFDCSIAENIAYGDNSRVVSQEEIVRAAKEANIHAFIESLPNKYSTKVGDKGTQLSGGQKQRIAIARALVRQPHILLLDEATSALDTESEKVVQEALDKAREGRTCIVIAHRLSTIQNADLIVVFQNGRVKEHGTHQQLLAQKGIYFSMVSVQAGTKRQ
T1 sequence (P19020 whole entry): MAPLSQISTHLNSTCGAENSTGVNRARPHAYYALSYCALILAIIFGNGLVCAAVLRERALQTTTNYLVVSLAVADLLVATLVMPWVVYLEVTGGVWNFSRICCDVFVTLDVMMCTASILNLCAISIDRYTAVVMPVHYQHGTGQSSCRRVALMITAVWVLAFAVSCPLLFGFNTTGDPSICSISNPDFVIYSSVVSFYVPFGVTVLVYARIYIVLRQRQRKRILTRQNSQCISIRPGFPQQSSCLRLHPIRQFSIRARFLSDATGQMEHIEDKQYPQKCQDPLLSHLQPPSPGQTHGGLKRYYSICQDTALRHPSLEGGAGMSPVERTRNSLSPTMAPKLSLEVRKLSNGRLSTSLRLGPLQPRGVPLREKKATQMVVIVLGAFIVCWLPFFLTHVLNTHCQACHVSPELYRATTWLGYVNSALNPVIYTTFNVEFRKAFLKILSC
T3 sequence (P19020 whole entry): as above

On to `COc1ccccc1N1CCN(CCCCNC(=O)/N=N/c2ccc([18F])cc2)CC1` [[^18F]2b], for which the Kd at D3 receptor in rat brain (all three regions) is roughly 0.1 nM; at D3 receptor in rat brain (caudate putamen) it was 0.08 ± 0.06 nM; on D3 receptor in rat brain (islands of calleja), 0.1 ± 0.01 nM; on D3 receptor in rat brain (nucleus accumbens) it was 0.11 ± 0.07 nM. The Bmax at D3 receptor in rat brain (caudate putamen (striatum)) is 16.58 pmol/g and 16.58 ± 1.63 pmol/g; on D3 receptor in rat brain (islands of calleja), 20.38 pmol/g and 20.38 ± 2.67 pmol/g; at D3 receptor in rat brain (nucleus accumbens), 19.54 pmol/g and 19.54 ± 1.85 pmol/g. Besides, the Ki at D3 receptor [1] was 3.5 nM. The “percentage inside the cells” value was found to be 5% on P-gp [2] and 10% on P-gp [3]. Besides, the “influence of cyclosporin-A on cellular uptake” value at P-gp [2] (with vs without cyclosporin-A) and on P-gp [3] (with vs without cyclosporin-A) was “did not increase the uptake” in each case. Further, in data set [4], the “binding to human plasma higher than in rat plasma” value was 20%–30%. Also, the “concentration in the apical compartment, % of the initial concentration” value is recorded as 90% on P-gp [5] (setting [10]); 80% on P-gp [5] (Caco-2, presence of cyclosporin-A (^99mTc-MIBI after 60 and 90 min; [^18F]2b after 30 min)). Moreover, the “concentration in the basolateral compartment, % of the initial concentration” value on P-gp [5] (setting [10]) came to 100%. Further, the “concentration in the basolateral compartment” value on P-gp [5] (Caco-2, presence of cyclosporin-A) is reported as “stayed nearly constant”. The P-gp substrate entry on P-gp [5] (conclusion from inhibition and transport assays) is given as “no P-gp substrate”. Moreover, the “binding pattern in rat brain sections” value on D3 receptor [6] was “D3 specific binding was visible”. In addition, the “Log D7.4” value in [7] is 2.10 ± 0.10. Further, the “intact tracer in rat plasma” value in data set [8] (5 min after i.v. injection) came to 49%; in data set [8] (30 min after i.v. injection) it was 37%. For the same compound, the “decomposition in human serum” value in data set [9] is on record as “no decomposition was observed”.
